Test results as given in patent US20160120863A1, “SLC2A TRANSPORTER INHIBITORS” (IOMET PHARMA LTD., priority 2013, published 2016).

Experiments:
human GLUT1 = biological target: T1, human GLUT1 (Homo sapiens, UniProt P11166); assay: [3H]-deoxy-D-glucose uptake assay, GLUT1; assay type: cell-based; settings: [3H]-deoxy-D-glucose uptake in HEK293 cells stably expressing human GLUT1
T1 construct: expressed in transfected cells
T1 sequence (P11166 1-492): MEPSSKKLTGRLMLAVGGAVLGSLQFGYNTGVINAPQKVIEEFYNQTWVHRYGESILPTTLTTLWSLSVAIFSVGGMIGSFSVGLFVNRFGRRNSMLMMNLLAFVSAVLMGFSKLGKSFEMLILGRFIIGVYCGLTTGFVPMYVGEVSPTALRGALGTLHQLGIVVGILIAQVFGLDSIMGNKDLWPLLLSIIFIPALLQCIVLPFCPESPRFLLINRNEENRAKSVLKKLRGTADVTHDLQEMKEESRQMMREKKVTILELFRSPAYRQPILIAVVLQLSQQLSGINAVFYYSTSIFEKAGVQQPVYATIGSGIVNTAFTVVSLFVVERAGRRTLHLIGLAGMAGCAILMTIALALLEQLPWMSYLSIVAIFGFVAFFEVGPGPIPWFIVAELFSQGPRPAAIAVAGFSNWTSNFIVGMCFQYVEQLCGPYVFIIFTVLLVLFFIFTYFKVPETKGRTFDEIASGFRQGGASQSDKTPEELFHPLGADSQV
Summary of the method: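 HEK293 cells stably overexpressing human GLUT1 or GLUT2, seeded at 60,000 per well, treated with compounds in glucose-free uptake buffer for 30 min at 37 °C. [3H]-deoxy-D-glucose uptake quantified by scintillation counting after ice-cold PBS washes; IC50 determined.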

human GLUT2 = biological target: T2, human GLUT2 (Homo sapiens, UniProt P11168); assay: [3H]-deoxy-D-glucose uptake assay, GLUT2; assay type: cell-based; settings: [3H]-deoxy-D-glucose uptake in HEK293 cells stably expressing human GLUT2
T2 construct: expressed in transfected cells
T2 sequence (P11168 1-524): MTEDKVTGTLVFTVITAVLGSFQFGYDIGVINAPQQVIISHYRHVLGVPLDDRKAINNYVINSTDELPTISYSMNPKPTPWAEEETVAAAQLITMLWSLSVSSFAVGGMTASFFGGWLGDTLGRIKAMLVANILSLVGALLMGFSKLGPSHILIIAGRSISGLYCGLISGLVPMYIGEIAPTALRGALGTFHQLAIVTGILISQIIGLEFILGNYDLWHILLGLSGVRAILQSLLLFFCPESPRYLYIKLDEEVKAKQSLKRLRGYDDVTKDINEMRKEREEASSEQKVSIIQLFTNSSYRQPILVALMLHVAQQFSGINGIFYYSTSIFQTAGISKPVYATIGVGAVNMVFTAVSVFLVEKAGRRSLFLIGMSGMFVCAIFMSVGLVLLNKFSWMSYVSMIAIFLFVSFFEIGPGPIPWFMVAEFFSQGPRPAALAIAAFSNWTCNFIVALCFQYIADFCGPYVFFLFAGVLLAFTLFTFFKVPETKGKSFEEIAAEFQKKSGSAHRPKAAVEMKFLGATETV
Method: HEK293 cells were engineered to stably express either human GLUT1, GLUT2, GLUt3 or GLUT4 by transfection with the pReceiver-Lv105 plasmid, containing either hGLUT1, hGLUT2, hGLUT3, or hGLUT4 gene constructs with lipofectamine 2000, hGLUT1- hGLUT2- hGLUT3- or hGLUT4-overexpressing polyclonal populations were isolated under purinomycin selective pressure (1 μg/ml) and maintained in Dulbecco's modified Eagle's medium supplemented with 1 μg/ml purinomycin+10% foetal bovine serum (FBS).
60,000 cells per well were seeded overnight into poly-D-lysine coasted 96-well plates. […] 90 μl of test compounds were added in glucose-free uptake buffer and cells were incubated at 37° C. for 30 min.
Cells were then washed twice with ice-cold PBS and 100 μl of Microscint-20 was added per well. Glucose uptake was quantified with a scintillation counter. The half maximal inhibitory concentration (IC50) (a measure of the effectiveness of the test compound in inhibiting glucose uptake) was determined.

Row | SMILES | GLUT1 pIC50 (human GLUT1) | GLUT2 pIC50 (human GLUT2)
1 | Clc1ccc(-c2nc3cnc(C4CC4)cn3c2CN2CCn3ncnc3C2)cc1 [Compound 261] | +++ (pIC50 ≧ 6.00) | +++ (pIC50 ≧ 6.00)
2 | N#Cc1ccccc1-c1cn2c(CN3CCOCC3)c(-c3ccc(Cl)cc3)nc2cn1 [Compound 269] | +++ (pIC50 ≧ 6.00) | ++ (pIC50 5.00-5.99)
3 | O=C1CN(Cc2c(-c3ccc(Cl)cc3Cl)nc3cnc(C4CC4)cn23)CCN1 [Compound 272] | +++ (pIC50 ≧ 6.00) | +++ (pIC50 ≧ 6.00)
4 | O=C1CN(Cc2c(-c3ccc(Cl)cc3)nc3ccc(-c4ncon4)cn23)CCN1 [Compound 278] | ++ (pIC50 5.00-5.99) | ++ (pIC50 5.00-5.99)
5 | CC(=O)N1CCN(Cc2c(-c3ccc(Cl)cc3)nc3ccc(N(C)S(C)(=O)=O)cn23)CC1 [Compound 292] | +++ (pIC50 ≧ 6.00) | ++ (pIC50 5.00-5.99)
6 | O=C1CN(Cc2c(-c3ccc(Cl)cc3)nc3ccc(-c4ccccn4)cn23)CCN1 [Compound 294] | +++ (pIC50 ≧ 6.00) | +++ (pIC50 ≧ 6.00)
7 | CC(=O)N1CCN(Cc2c(-c3ccc(Cl)cc3)nc3ccc(-c4ccccn4)cn23)CC1 [Compound 295] | +++ (pIC50 ≧ 6.00) | +++ (pIC50 ≧ 6.00)
8 | Clc1ccc(-c2nc3ccc(C4COC4)cn3c2CN2CCOCC2)cc1 [Compound 298] | ++ (pIC50 5.00-5.99) | +− (pIC50 < 4.00)
9 | Clc1ccc(-c2nc3ccc(-c4ccccn4)cn3c2CN2CCn3ncnc3C2)c(Cl)c1 [Compound 299] | +++ (pIC50 ≧ 6.00) | +++ (pIC50 ≧ 6.00)
10 | O=C(Cc1c(-c2ccc(Cl)cc2)nc2ccc(-c3ccccc3)cn12)N1CCOCC1 [Compound 301] | +− (pIC50 < 4.00) | ++ (pIC50 5.00-5.99)
11 | CCOC(=O)Cc1c(-c2ccc(Cl)cc2)nc2ccc(-c3ccccc3)cn12 [Compound 302] | +− (pIC50 < 4.00) | ++ (pIC50 5.00-5.99)
12 | CN(c1ccc2nc(-c3ccc(Cl)cc3)c(CN3CCNCC3)n2c1)S(C)(=O)=O [Compound 304] | ++ (pIC50 5.00-5.99) | +− (pIC50 < 4.00)
13 | c1ccc(-c2ccc3nc(C4CCOCC4)c(CN4CCOCC4)n3c2)cc1 [Compound 305] | +− (pIC50 < 4.00) | +− (pIC50 < 4.00)
14 | COCC(=O)N1CCN(Cc2c(-c3ccc(Cl)cc3Cl)nc3ccc(-c4ncon4)cn23)CC1 [Compound 307] | +++ (pIC50 ≧ 6.00) | ++ (pIC50 5.00-5.99)
15 | CC(C)(O)C(=O)N1CCN(Cc2c(-c3ccc(Cl)cc3)nc3ccc(-c4ccccc4)cn23)CC1 [Compound 308] | +++ (pIC50 ≧ 6.00) | +++ (pIC50 ≧ 6.00)
16 | CC(=O)N1CCN(Cc2c(-c3ccc(Cl)cc3Cl)nc3ccc(-c4ncon4)cn23)CC1 [Compound 312] | +++ (pIC50 ≧ 6.00) | +++ (pIC50 ≧ 6.00)
17 | COCCS(=O)(=O)Nc1ccc2nc(-c3ccc(Cl)cc3)c(CN3CCN(C(C)=O)CC3)n2c1 [Compound 315] | ++ (pIC50 5.00-5.99) | +− (pIC50 < 4.00)
18 | CC(=O)N1CCN(Cc2c(-c3ccc(Cl)cc3)nc3ccc(NS(=O)(=O)C(C)C)cn23)CC1 [Compound 317] | ++ (pIC50 5.00-5.99) | ++ (pIC50 5.00-5.99)
19 | CC(=O)N1CCN(Cc2c(-c3ccc(Cl)cc3)nc3ccc(NS(=O)(=O)C4CC4)cn23)CC1 [Compound 318] | +++ (pIC50 ≧ 6.00) | ++ (pIC50 5.00-5.99)
20 | CCCS(=O)(=O)Nc1ccc2nc(-c3ccc(Cl)cc3)c(CN3CCN(C(C)=O)CC3)n2c1 [Compound 319] | +++ (pIC50 ≧ 6.00) | ++ (pIC50 5.00-5.99)
21 | CC(=O)N1CCN(Cc2c(-c3ccc(Cl)cc3)nc3ccc(N4CCCS4(=O)=O)cn23)CC1 [Compound 320] | +++ (pIC50 ≧ 6.00) | +++ (pIC50 ≧ 6.00)
22 | Clc1ccc(-c2nc3cnc(C4CC4)cn3c2CN2CCn3ncnc3C2)c(Cl)c1 [Compound 323] | +++ (pIC50 ≧ 6.00) | +++ (pIC50 ≧ 6.00)
23 | CN(c1ccc2nc(-c3ccc(Cl)cc3)c(CN3CCn4ncnc4C3)n2c1)S(C)(=O)=O [Compound 324] | +++ (pIC50 ≧ 6.00) | ++ (pIC50 5.00-5.99)
24 | CN(c1ccc2nc(-c3ccc(Cl)cc3)c(CN3CCNC(=O)C3)n2c1)S(C)(=O)=O [Compound 325] | +++ (pIC50 ≧ 6.00) | ++ (pIC50 5.00-5.99)
25 | CC(=O)N1CCN(Cc2c(-c3ccc(Cl)cc3)nc3ccc(N(C)S(=O)(=O)C4CC4)cn23)CC1 [Compound 327] | +++ (pIC50 ≧ 6.00) | ++ (pIC50 5.00-5.99)

Continued, values first:

Row | GLUT1 pIC50 (human GLUT1) | GLUT2 pIC50 (human GLUT2) | SMILES
26 | ++ (pIC50 5.00-5.99) | ++ (pIC50 5.00-5.99) | Fc1cncc(F)c1-c1ccc2nc(-c3ccc(Cl)cc3)c(CN3CCOCC3)n2c1 [Compound 328]
27 | +++ (pIC50 ≧ 6.00) | +++ (pIC50 ≧ 6.00) | Clc1ccc(-c2nc3ccc(-c4ncon4)cn3c2CN2CCn3ncnc3C2)c(Cl)c1 [Compound 329]
28 | +++ (pIC50 ≧ 6.00) | ++ (pIC50 5.00-5.99) | CS(=O)(=O)N1CCN(Cc2c(-c3ccc(Cl)cc3Cl)nc3cnc(C4CC4)cn23)CC1 [Compound 330]
29 | +− (pIC50 < 4.00) | +− (pIC50 < 4.00) | CC(=O)N1CCN(Cc2c(-c3ccc(Cl)cc3)nc3cnc(NS(C)(=O)=O)cn23)CC1 [Compound 331]
30 | +++ (pIC50 ≧ 6.00) | ++ (pIC50 5.00-5.99) | CS(=O)(=O)Nc1ccc2nc(-c3ccc(Cl)cc3)c(CN3CCn4ncnc4C3)n2c1 [Compound 337]
31 | +++ (pIC50 ≧ 6.00) | +++ (pIC50 ≧ 6.00) | O=C(C1COC1)N1CCN(Cc2c(-c3ccc(Cl)cc3Cl)nc3ccc(-c4ncon4)cn23)CC1 [Compound 338]
32 | +− (pIC50 < 4.00) | ++ (pIC50 5.00-5.99) | Clc1ccc(-c2nc3ccc(-c4ccccc4)cn3c2CCN2CCOCC2)cc1 [Compound 342]
33 | +− (pIC50 < 4.00) | +− (pIC50 < 4.00) | CC(=O)N1CCN(Cc2c(-c3ccc(Cl)cc3Cl)nc3cnc(NS(C)(=O)=O)cn23)CC1 [Compound 344]
34 | +++ (pIC50 ≧ 6.00) | ++ (pIC50 5.00-5.99) | CS(=O)(=O)Nc1ccc2nc(-c3ccc(Cl)cc3Cl)c(CN3CCn4ncnc4C3)n2c1 [Compound 345]
35 | +++ (pIC50 ≧ 6.00) | ++ (pIC50 5.00-5.99) | CC(=O)N1CCN(Cc2c(-c3ccc(Cl)cc3Cl)nc3cnc(N(C)S(C)(=O)=O)cn23)CC1 [Compound 347]
36 | +− (pIC50 < 4.00) | +− (pIC50 < 4.00) | Clc1ccc(-c2nc3cnc(C4CC4)cn3c2CN2CCNCC2)cc1 [Compound 348]
37 | ++ (pIC50 5.00-5.99) | +− (pIC50 < 4.00) | CC(=O)N1CCN(Cc2c(-c3ccc(Cl)cc3Cl)nc3cnccn23)CC1 [Compound 349]
38 | +− (pIC50 < 4.00) | +− (pIC50 < 4.00) | Clc1ccc(-c2nc3ccc(-c4ccccc4)cn3c2CN2CCSCC2)cc1 [Compound 352]
